Patent US11292791B2 (priority 2017, dated 2022)

The compounds below were run against BRD4 (Homo sapiens (Human), UniProt O60885). Conditions: read-out: BRD4 IC50 (μM gmean).

| SMILES | IC50 |
| --- | --- |
| COC(=O)N1c2ccc3c(nc(CC(C(=O)O)c4cccc(C)c4)n3C3CCCOC3)c2CC[C@@H]1C (stereo partly shown) [Example 885] | 1 to 1000 µM |
| COC(=O)N1c2ccc3c(nc(CCn4cccn4)n3CCNCCN3CCNC3=O)c2CC[C@@H]1C [Example 307] | 1 to 1000 µM |
| COC(=O)N1c2ccc3c(nc(CCn4cccn4)n3CCS(C)(=O)=O)c2CC[C@@H]1C [Example 271] | 1 to 1000 µM |
| COC(=O)N1c2ccc3c(nc(CCc4cccc(OC(C)C)c4)n3C3CC4(CNC4)C3)c2CC[C@@H]1C [Example 101] | 1 to 1000 µM |
| COC(=O)N1c2ccc3c(nc(Cc4ccc(N5CCCC5=O)cc4)n3[C@H]3CC[C@H](C(=O)O)CC3)c2CC[C@@H]1C [Example 664] | 1 to 1000 µM |
| COC(=O)N1c2ccc3c(nc(CCc4ccccc4C(=O)O)n3C3CCOCC3)c2CC[C@@H]1C [Example 743] | 1 to 1000 µM |
| COC(=O)N1c2ccc3c(nc(Cc4cccc(C#N)c4)n3[C@H]3CC[C@H](C(=O)O)CC3)c2CC[C@@H]1C [Example 707] | 1 to 1000 µM |
| COC(=O)N1c2ccc3c(nc(CC(C(=O)O)c4ccccc4)n3-c3ccc(C#N)cc3)c2CC[C@@H]1C (stereo partly shown) [Example 914] | 1 to 1000 µM |
| COC(=O)N1c2ccc3c(nc(CC(C(=O)O)c4ccc(C(F)F)cc4)n3C3CCCOC3)c2CC[C@@H]1C (stereo partly shown) [Example 902] | 1 to 1000 µM |
| COC(=O)N1c2ccc3c(nc(CC(C(=O)O)c4cccc5ccccc45)n3C3CCCOC3)c2CC[C@@H]1C (stereo partly shown) [Example 580] | 1 to 1000 µM |
| COC(=O)N1c2ccc3c(nc(CCn4cccn4)n3CCN(C)CC(C)(C)O)c2CC[C@@H]1C [Example 304] | 1 to 1000 µM |
| COC(=O)N1c2ccc3c(nc(Nc4cc(C)nn4C)n3[C@@H]3CCC[C@@H](C(=O)O)C3)c2CC[C@@H]1C [Example 916] | 1 to 1000 µM |
| COC(=O)N1c2ccc3c(nc(CC(C(=O)O)c4ccc(C)c(F)c4)n3C3CCCOC3)c2CC[C@@H]1C (stereo partly shown) [Example 407] | 1 to 1000 µM |
| COC(=O)N1c2ccc3c(nc(C[C@@H](C)c4ccccc4)n3C)c2CC[C@@H]1C [Example 1, methyl (S)-3,7-dimethyl-2-((R)-2-phenylpropyl)-3,7,8,9-tetrahydro-6H-imidazo[4,5-f]quinoline-6-carboxylate] | 1 to 1000 µM |
| COC(=O)N1c2ccc3c(nc(CCn4cccn4)n3CCN3CC[C@H](NC(C)=O)C3)c2CC[C@@H]1C [Example 310] | 1 to 1000 µM |
| C/C=C(\Oc1ccccc1)c1nc2c3c(ccc2n1[C@@H]1CCC[C@@H](C(=O)O)C1)N(C(=O)OC)[C@@H](C)CC3 [Example 522] | 1 to 1000 µM |
| COC(=O)N1c2ccc3c(nc(Cc4ccccc4)n3C34CCC(C(=O)O)(CC3)C4)c2CC[C@@H]1C [Example 24] | 1 to 1000 µM |
| COC(=O)N1c2ccc3c(nc(CCn4cccn4)n3CCN3CCC(O)CC3)c2CC[C@@H]1C [Example 298] | 1 to 1000 µM |
| COC(=O)N1c2ccc3c(nc(C(C)Cc4cnn(C)c4)n3C3CCCC(C(=O)O)C3)c2CC[C@@H]1C (stereo partly shown) [Example 742] | 1 to 1000 µM |
| COC(=O)N1c2ccc3c(nc(Cc4ccc(OC)c(F)c4F)n3[C@H]3CC[C@H](C(=O)O)CC3)c2CC[C@@H]1C [Example 553] | 1 to 1000 µM |
| COC(=O)N1c2ccc3c(nc(C(C)Cc4cnn(C)c4)n3C3CCCC(C(=O)O)C3)c2CC[C@@H]1C (stereo partly shown) [Example 867] | 1 to 1000 µM |
| COC(=O)N1c2ccc3c(nc(CC(C(=O)O)c4ccccc4)n3-c3ccc(OC)cc3)c2CC[C@@H]1C (stereo partly shown) [Example 536] | 1 to 1000 µM |
| COC(=O)N1c2ccc3c(nc(CCn4ccccc4=O)n3CCN3CCNCC3)c2CC[C@@H]1C [Example 229] | 1 to 1000 µM |

| SMILES | IC50 |
| --- | --- |
| COC(=O)N1c2ccc3c(nc(Cc4ccc(OC5CC5)nc4)n3[C@@H]3CCC[C@@H](C(=O)O)C3)c2CC[C@@H]1C [Example 562] | 1 to 1000 µM |
| COC(=O)N1c2ccc3c(nc(C(C)Cn4cc(C(F)F)cn4)n3C3CCC(C(=O)O)CC3)c2CC[C@@H]1C (stereo partly shown) [Example 912] | 1 to 1000 µM |
| COC(=O)N1c2ccc3c(nc(CCn4cccn4)n3CC(=O)NCc3cccnc3)c2CC[C@@H]1C [Example 346] | 1 to 1000 µM |
| COC(=O)N1c2ccc3c(nc(COC4CCOCC4)n3[C@H]3CC[C@H](C(=O)O)CC3)c2CC[C@@H]1C [Example 759] | 1 to 1000 µM |
| COC(=O)N1c2ccc3c(nc(CCc4nnc(C)o4)n3[C@H]3CC[C@H](C(=O)O)CC3)c2CC[C@@H]1C [Example 38] | 1 to 1000 µM |
| COC(=O)N1c2ccc3c(nc(Cc4ccccc4)n3CCO)c2CC[C@@H]1C [Example 287, methyl (S)-2-benzyl-3-(2-hydroxyethyl)-7-methyl-3,7,8,9-tetrahydro-6H-imidazo[4,5-f]quinoline-6-carboxylate] | 1 to 1000 µM |
| COC(=O)N1c2ccc3c(nc(Cc4ccc(C#N)cc4)n3[C@H]3CC[C@H](C(=O)O)CC3)c2CC[C@@H]1C [Example 744] | 1 to 1000 µM |
| COC(=O)N1c2ccc3c(nc(C(C)Cn4ccc(Cl)n4)n3C3CCCC(C(=O)O)C3)c2CC[C@@H]1C (stereo partly shown) [Example 459] | 1 to 1000 µM |
| COC(=O)N1c2ccc3c(nc(C(C)C(=O)N4CCCC4)n3C3CCCC(C(=O)O)C3)c2CC[C@@H]1C (stereo partly shown) [Example 732] | 1 to 1000 µM |
| COC(=O)N1c2ccc3c(nc(C(C)Cn4cc(Cl)cn4)n3C3CCS(=O)(=O)C3)c2CC[C@@H]1C (stereo partly shown) [Example 651] | 1 to 1000 µM |
| COC(=O)N1c2ccc3c(nc(CCn4ccccc4=O)n3CCN3CC[C@H](C(N)=O)C3)c2CC[C@@H]1C [Example 327] | 1 to 1000 µM |
| COC(=O)N1c2ccc3c(nc(C(c4ccc(OC)c(F)c4)C(C)C)n3C3CCC(C(=O)O)CC3)c2CC[C@@H]1C (stereo partly shown) [Example 673] | 1 to 1000 µM |
| COC(=O)N1c2ccc3c(nc(Cc4ccc(N5CCCC5=O)cc4)n3[C@@H]3CCC[C@@H](C(=O)O)C3)c2CC[C@@H]1C [Example 858] | 1 to 1000 µM |
| COC(=O)N1c2ccc3c(nc(Cc4cccc(Cl)c4)n3[C@@H]3CCC[C@@H](C(=O)O)C3)c2CC[C@@H]1C [Example 616] | 1 to 1000 µM |
| COC(=O)N1c2ccc3c(nc(CCn4cccn4)n3CC(=O)NCc3ncccn3)c2CC[C@@H]1C [Example 337] | 1 to 1000 µM |
| COC(=O)N1c2ccc3c(nc(Cc4cnc5cc[nH]c5n4)n3[C@@H]3CCC[C@@H](C(=O)O)C3)c2CC[C@@H]1C [Example 795] | 1 to 1000 µM |
| COC(=O)N1c2ccc3c(nc(C(C)Cn4cc(Cl)cn4)n3C3CCS(=O)(=O)C3)c2CC[C@@H]1C (stereo partly shown) [Example 926] | 1 to 1000 µM |
| COC(=O)N1c2ccc3c(nc(Cc4cc(F)cc(OC)c4)n3[C@@H]3CCC[C@@H](C(=O)O)C3)c2CC[C@@H]1C [Example 541] | 1 to 1000 µM |
| COC(=O)N1c2ccc3c(nc(Cc4ccc(OC)cc4)n3C3CCNCC3)c2CC[C@@H]1C [Example 107] | 1 to 1000 µM |
| COC(=O)N1c2ccc3c(nc(C(=O)N(C)c4ccccc4)n3[C@@H]3CCC[C@@H](C(=O)O)C3)c2CC[C@@H]1C [Example 934] | 1 to 1000 µM |
| COC(=O)N1c2ccc3c(nc(Cc4ccccc4)n3CC(=O)O)c2CC[C@@H]1C [Example 285, (S)-2-(2-benzyl-6-(methoxycarbonyl)-7-methyl-6,7,8,9-tetrahydro-3H-imidazo[4,5-f]quinolin-3-yl)acetic Acid] | 1 to 1000 µM |
| COC(=O)N1c2ccc3c(nc(Cc4ccc(OC)c(F)c4)n3[C@H]3CC[C@H](C(=O)O)CC3)c2CC[C@@H]1C [Example 28] | 1 to 1000 µM |
| COC(=O)N1c2ccc3c(nc(CCn4cccn4)n3CCN3CCC(C#N)CC3)c2CC[C@@H]1C [Example 308] | 1 to 1000 µM |
